Data published in patent publication US10287272B2, “Substituted indazole compounds as RORgammaT inhibitors and uses thereof” (Merck Sharp & Dohme Corp., priority 2015, dated 2019).

Experiments:
[1] = tested on: BclxL gene expression in murine thymus; assay: Murine thymic BclxL gene expression assay; assay type: in vivo, mouse; details: female C57BL/6 mice, oral 0.1-30 mg/kg, thymus collected 2 hours after dosing, qPCR; FIG. 3
[2] = tested on: murine collagen-induced arthritis model; assay: Murine collagen-induced arthritis model; assay type: in vivo, mouse; details: female DBA/1J mice, oral 3, 10 or 30 mg/kg twice daily; FIG. 4
Description: Female DBA/1J mice (Jackson Laboratories, 7-8 weeks old) were received and allowed to acclimate for about one week. On the day of immunization, an emulsion was freshly prepared by homogenizing equal volumes of Complete Freund's Adjuvant (CFA, Chondrex #7001) and a collagen type-2 solution (bovine source, Chondrex #20022) using a tissue homogenizer, on ice. A volume of 0.1 mL of this emulsion was injected subcutaneously into the base of the tail of each mouse, which was lightly anesthetized with isoflurane. Mice recovered from anesthesia were allowed food and water ad libitum.
Eighteen days after immunization, the mice were injected intraperitoneally with 40 μg of lipopolysaccaride (LPS, Sigma#L4005) in 0.2 mL saline, in order to help synchronize the disease progression in all animals. Seven days after LPS injection, the mice were assessed for knee joint swelling by measurement of each knee joint using digital calipers and computing total joint circumference. The total knee joint circumference of the 4 knee joints was then used to randomize mice into treatment groups of equal average circumference.
This dosing continued twice daily at 8- and 16-hour intervals for the duration of the study. As a positive control, one group of mice received 25 mg/kg Jak inhibitor (JAKi) tofacitinib once per day. Joints were measured 2-3 times per week.

PPARβ = PPARβ (Homo sapiens (Human), UniProt Q03181); assay: Nuclear hormone receptor selectivity assay (GAL4-NHR-LBD luciferase, HEK293); assay type: cell-based
PPARβ, sequence (Q03181 211-439, species assumed): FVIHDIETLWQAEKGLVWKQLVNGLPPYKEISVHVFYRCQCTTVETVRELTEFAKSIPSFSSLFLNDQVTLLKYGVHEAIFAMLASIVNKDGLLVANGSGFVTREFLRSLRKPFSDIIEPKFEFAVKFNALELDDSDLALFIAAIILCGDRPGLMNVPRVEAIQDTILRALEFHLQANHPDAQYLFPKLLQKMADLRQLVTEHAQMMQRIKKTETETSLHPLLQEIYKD
Description: (§1) In the assay system used, an activated GAL4-nuclear hormone receptor (NHR) fusion construct binds to an upstream activation sequence (UAS) and drives a luciferase reporter gene. […]
(§2) HEK293 cells were transfected with GAL4-NHR-LBD construct (pcDNA3.1neo) and the pGL4.31 GAL4-luciferase reporter construct (Promega) and incubated overnight at 37° C. and 5% CO2. After 16-24 hours, cells were harvested and plated at 20 μL (10,000 cells)/well in tissue-culture treated 384 well plate. […] Next, plates are spun briefly and incubated overnight at 37° C. and 5% CO2. […] In agonist mode, test compound was incubated directly with the cells. For receptors that are not constitutively active, a known agonist is also tested as a positive control.
(§3) After 16-24 hours, luciferase activity was measured. Plates and luciferase reagent (e.g. One-Glo® or Dual Glo®; Promega, Madison, Wis.) were brought to room temperature. Next, a 25 μL aliquot of luciferase reagent was added to each well. Plates were spun down briefly and incubated at room temperature for 10 minutes. The luciferase signal was measured on an Envision plate reader (Perkin Elmer) set to the ultra-sensitive luminescence setting.

CAR = CAR (Homo sapiens (Human), UniProt Q14994); assay: as above; assay type: cell-based
CAR, sequence (Q14994 109-352): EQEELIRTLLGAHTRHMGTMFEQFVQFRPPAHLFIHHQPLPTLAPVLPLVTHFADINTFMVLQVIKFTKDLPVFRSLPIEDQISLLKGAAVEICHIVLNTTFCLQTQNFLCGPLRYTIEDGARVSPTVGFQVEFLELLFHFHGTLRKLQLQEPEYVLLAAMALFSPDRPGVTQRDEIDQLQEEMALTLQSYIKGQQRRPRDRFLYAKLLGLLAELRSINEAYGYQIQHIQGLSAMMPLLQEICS
Description: as §1, §2, §3

LXRβ = LXRβ (Homo sapiens (Human), UniProt P55055); assay: as above; assay type: cell-based
LXRβ, sequence (P55055 222-460): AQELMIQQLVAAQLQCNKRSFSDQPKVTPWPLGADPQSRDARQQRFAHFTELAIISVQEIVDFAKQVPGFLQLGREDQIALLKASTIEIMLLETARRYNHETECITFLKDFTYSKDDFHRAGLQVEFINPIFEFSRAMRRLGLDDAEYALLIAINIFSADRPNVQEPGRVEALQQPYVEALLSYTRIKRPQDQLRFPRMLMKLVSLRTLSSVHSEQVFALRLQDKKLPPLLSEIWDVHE
Description: as §1, §2, §3

TRα = TRα (Homo sapiens (Human), UniProt P10827); assay: as above; assay type: cell-based
TRα, sequence (P10827 other isoform, or with tags, fused parts or gaps isoform P10827-2): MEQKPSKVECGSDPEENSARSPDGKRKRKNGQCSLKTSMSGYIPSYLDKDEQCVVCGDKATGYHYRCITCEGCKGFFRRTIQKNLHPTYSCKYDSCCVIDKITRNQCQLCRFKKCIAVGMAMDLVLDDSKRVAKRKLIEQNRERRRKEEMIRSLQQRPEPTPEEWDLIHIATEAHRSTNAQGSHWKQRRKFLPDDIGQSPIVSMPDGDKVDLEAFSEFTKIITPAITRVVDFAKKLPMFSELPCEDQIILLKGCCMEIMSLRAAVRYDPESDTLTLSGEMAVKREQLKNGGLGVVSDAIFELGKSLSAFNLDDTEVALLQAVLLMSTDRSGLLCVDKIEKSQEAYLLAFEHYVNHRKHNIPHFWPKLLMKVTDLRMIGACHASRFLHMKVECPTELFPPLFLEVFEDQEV
Description: as §1, §2, §3

VDR = VDR (Homo sapiens (Human), UniProt P11473); assay: as above; assay type: cell-based
VDR, sequence (P11473 127-423, species assumed): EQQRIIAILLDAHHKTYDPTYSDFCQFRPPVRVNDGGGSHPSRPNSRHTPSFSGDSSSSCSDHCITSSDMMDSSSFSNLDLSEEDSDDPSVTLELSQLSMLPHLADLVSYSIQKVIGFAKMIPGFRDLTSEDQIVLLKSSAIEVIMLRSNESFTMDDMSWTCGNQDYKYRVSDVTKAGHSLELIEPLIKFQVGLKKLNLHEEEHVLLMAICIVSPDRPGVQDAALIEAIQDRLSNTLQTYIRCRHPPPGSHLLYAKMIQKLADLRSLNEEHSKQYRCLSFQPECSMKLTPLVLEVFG
Description: as §1, §2, §3

RARα = RARα (Homo sapiens (Human), UniProt P10276); assay: as above; assay type: cell-based
RARα, sequence (P10276 183-417, species assumed): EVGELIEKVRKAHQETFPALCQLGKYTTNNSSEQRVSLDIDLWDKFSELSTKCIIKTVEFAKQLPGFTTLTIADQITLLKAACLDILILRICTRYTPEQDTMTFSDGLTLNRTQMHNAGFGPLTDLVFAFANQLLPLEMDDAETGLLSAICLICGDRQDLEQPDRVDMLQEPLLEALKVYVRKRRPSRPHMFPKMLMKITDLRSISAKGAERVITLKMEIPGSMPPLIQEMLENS
Description: as §1, §2, §3

FXR = FXR (Homo sapiens (Human), UniProt Q96RI1); assay: as above; assay type: cell-based
FXR, sequence (Q96RI1 262-486, species assumed): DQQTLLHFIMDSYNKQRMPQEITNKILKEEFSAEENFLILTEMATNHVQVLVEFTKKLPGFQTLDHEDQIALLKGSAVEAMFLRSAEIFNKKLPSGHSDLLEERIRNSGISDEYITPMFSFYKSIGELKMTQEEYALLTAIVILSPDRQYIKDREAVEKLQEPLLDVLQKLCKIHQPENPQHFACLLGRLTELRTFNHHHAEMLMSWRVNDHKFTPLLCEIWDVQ
Description: as §1, §2, §3

RORα = RORα (Homo sapiens (Human), UniProt P35398); assay: as above; assay type: cell-based; details: antagonist mode
RORα, sequence (P35398 272-510): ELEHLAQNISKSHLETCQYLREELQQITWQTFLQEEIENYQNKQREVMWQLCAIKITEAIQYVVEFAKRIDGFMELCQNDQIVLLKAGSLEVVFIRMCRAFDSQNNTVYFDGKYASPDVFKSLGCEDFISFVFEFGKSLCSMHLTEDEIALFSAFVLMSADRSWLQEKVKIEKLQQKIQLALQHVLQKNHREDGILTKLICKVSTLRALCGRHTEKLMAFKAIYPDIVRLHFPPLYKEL
Description: as §1, §2, §3

PPARγ = PPARγ (Homo sapiens (Human), UniProt P37231); assay: as above; assay type: cell-based
PPARγ, sequence (P37231 238-503, species assumed): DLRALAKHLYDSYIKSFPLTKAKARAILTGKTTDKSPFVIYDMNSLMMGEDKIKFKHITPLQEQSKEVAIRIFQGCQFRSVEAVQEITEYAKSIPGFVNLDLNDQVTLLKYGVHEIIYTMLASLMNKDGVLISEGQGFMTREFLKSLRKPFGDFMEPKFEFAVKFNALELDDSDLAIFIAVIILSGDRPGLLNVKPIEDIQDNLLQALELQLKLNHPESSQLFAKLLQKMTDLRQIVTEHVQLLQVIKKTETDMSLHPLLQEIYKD
Description: as §1, §2, §3

RXRα = RXRα (Homo sapiens (Human), UniProt P19793); assay: as above; assay type: cell-based
RXRα, sequence (P19793 227-458): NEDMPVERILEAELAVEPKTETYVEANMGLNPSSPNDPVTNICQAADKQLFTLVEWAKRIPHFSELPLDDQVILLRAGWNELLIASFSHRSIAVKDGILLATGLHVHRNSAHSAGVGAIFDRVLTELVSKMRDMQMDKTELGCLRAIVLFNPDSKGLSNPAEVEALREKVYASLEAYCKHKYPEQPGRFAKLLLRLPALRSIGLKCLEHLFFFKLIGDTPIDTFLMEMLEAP
Description: as §1, §2, §3

TRβ = TRβ (Homo sapiens (Human), UniProt P10828); assay: as above; assay type: cell-based
TRβ, sequence (P10828 217-461): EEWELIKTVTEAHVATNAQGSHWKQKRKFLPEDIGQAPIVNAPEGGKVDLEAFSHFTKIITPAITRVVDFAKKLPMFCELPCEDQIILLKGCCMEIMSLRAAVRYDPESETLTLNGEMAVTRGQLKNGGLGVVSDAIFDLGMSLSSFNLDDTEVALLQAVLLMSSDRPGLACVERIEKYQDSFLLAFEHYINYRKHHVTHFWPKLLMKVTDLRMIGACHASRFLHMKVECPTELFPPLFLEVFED
Description: as §1, §2, §3

PXR = PXR (Homo sapiens (Human), UniProt O75469); assay: as above; assay type: cell-based; details: agonist mode
PXR, sequence (O75469 146-433, species assumed): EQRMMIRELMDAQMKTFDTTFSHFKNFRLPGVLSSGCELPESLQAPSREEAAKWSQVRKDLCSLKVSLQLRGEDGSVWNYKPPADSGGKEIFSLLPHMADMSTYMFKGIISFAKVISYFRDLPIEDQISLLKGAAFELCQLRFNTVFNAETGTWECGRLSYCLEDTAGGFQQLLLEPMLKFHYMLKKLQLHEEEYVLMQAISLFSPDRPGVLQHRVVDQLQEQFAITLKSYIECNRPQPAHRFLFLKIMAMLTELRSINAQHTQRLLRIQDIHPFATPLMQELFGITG
Description: as §1, §2, §3

RARβ = RARβ (Homo sapiens (Human), UniProt P10826); assay: as above; assay type: cell-based
RARβ, sequence (P10826 183-417, species assumed): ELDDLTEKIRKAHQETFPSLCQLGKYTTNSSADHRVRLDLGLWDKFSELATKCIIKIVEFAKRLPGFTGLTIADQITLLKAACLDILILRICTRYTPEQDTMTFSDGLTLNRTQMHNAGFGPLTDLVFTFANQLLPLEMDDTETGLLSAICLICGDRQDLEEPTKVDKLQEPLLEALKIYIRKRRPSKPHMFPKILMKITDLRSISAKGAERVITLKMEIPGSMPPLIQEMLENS
Description: as §1, §2, §3

LXRα = LXRα (Homo sapiens (Human), UniProt Q13133); assay: as above; assay type: cell-based
LXRα, sequence (Q13133 209-447): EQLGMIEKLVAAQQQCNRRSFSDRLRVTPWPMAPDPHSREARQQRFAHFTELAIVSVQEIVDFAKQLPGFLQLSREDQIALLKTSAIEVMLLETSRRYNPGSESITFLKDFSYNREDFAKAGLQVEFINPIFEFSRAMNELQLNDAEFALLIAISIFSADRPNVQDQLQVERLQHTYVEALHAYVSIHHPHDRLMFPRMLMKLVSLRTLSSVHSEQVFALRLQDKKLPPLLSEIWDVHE
Description: as §1, §2, §3

RARγ = RARγ (Homo sapiens (Human), UniProt P13631); assay: as above; assay type: cell-based
RARγ, sequence (P13631 185-419, species assumed): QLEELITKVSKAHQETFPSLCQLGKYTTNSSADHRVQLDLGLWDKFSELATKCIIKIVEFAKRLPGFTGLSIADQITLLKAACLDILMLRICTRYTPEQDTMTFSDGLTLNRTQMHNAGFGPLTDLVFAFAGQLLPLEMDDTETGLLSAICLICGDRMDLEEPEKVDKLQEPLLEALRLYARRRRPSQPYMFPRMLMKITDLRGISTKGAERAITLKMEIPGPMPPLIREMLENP
Description: as §1, §2, §3

PPARα = PPARα (Homo sapiens (Human), UniProt Q07869); assay: as above; assay type: cell-based
PPARα, sequence (Q07869 239-466, species assumed): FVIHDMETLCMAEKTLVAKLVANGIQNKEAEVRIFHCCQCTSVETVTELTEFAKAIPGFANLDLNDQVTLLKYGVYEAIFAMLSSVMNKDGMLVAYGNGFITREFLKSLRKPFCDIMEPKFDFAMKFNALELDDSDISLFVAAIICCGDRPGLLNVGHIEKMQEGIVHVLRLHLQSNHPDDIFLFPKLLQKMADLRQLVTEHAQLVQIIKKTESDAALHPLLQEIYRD
Description: as §1, §2, §3

RORβ = RORβ (Homo sapiens (Human), UniProt Q92753); assay: as above; assay type: cell-based; details: antagonist mode
RORβ, sequence (Q92753 222-460): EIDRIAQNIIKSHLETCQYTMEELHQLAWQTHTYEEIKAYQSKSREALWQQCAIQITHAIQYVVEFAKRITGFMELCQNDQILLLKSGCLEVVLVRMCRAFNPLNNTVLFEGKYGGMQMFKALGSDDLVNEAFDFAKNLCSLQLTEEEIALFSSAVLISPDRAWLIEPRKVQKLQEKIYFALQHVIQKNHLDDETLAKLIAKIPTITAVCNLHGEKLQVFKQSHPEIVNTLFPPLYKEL
Description: as §1, §2, §3

[3] = antagonist mode, reference agonist at EC80

- EC50 (PPARβ; agonist mode): > 10 µM
- IC50 (PPARβ; [3]): > 10 µM
- EC50 (CAR; agonist mode): > 10 µM
- IC50 (CAR; [3]): > 10 µM
- EC50 (LXRβ; agonist mode): > 10 µM
- IC50 (LXRβ; [3]): > 10 µM
- EC50 (TRα; agonist mode): > 10 µM
- IC50 (TRα; [3]): 16 µM
- EC50 (VDR; agonist mode): > 10 µM
- IC50 (VDR; [3]): > 10 µM
- EC50 (RARα; agonist mode): > 10 µM
- IC50 (RARα; [3]): > 10 µM
- EC50 (FXR; agonist mode): > 10 µM
- IC50 (FXR; [3]): > 10 µM
- IC50 (RORα): > 10 µM
- IC50 (PPARγ; PPARγ, antagonist mode, reference agonist at EC80): > 10 µM
- EC50 (PPARγ; read-out: Agonist Mode EC50): 5.1 µM
- EC50 (RXRα; agonist mode): > 10 µM
- IC50 (RXRα; [3]): > 10 µM
- EC50 (TRβ; agonist mode): > 10 µM
- IC50 (TRβ; [3]): > 10 µM
- EC50 (PXR): 8.2 µM
- EC50 (RARβ; agonist mode): > 10 µM
- IC50 (RARβ; [3]): > 10 µM
- EC50 (LXRα; agonist mode): > 10 µM
- IC50 (LXRα; [3]): > 10 µM
- EC50 (RARγ; agonist mode): > 10 µM
- IC50 (RARγ; [3]): > 10 µM
- EC50 (PPARα; agonist mode): > 10 µM
- IC50 (PPARα; [3]): > 10 µM
- IC50 (RORβ): > 10 µM
SMILES: O=C(O)[C@@H]1CC=C(c2nn(C(=O)c3c(Cl)cccc3C3(C(F)(F)F)CC3)c3c2CC[C@@H](C(=O)N2CCC4(COC4)C2)C3)CC1 [Test Compound]
- expression of BclxL in murine thymus [1]: dose-dependent decrease in the expression of BclxL in murine thymus
- total joint circumference [2]: dose-dependent decrease in total joint circumference
